Measurements published in patent US6656510B2, “Hyperforin derivatives, use thereof and formulations containing them” (Indena S.p.A., priority 1998, dated 2003).

Legend:
[1] = tested on: escape deficit (antidepressive effect); assay: escape deficit development test; format: in vivo; details: rats, 2 week pre-treatment, escapes out of 30 stimuli
Procedure: In the escape deficit development test, rats are restrained and subjected to mild, short, unavoidable electric shocks for 50 minutes. This is known as the pre-test. 24 hours later, the rats are tested for their ability to avoid the same stimuli on their tails, in a situation where […]. A rat on the average makes 26 escapes out of 30 stimuli (naive controls), whereas a rat subjected to pre-test only makes 1 to 3 escapes (ED controls). […] The compounds of the invention, when administered to rats one hour before their exposure to the unavoidable stress, cause an increase in reactivity to the escape test. This increase in reactivity is enhanced when pre-treatment is effected for 1 to 2 weeks.

[2] = after only a few weeks; WO 97/13489; cited from earlier work

Compound | Number of Escapes ([1]; 6.25 mg/Kg) | Number of Escapes ([1]; 12.5 mg/Kg) | Number of Escapes ([1]; 25.0 mg/Kg) | hyperforin content of a water-alcohol extract of St. Johns wort [2]
CC(=O)OC1=C(CC=C(C)C)C(=O)[C@]2(C(=O)C(C)C)C(=O)[C@]1(CC=C(C)C)C[C@H](CC=C(C)C)[C@@]2(C)CCC=C(C)C [Hyperforin acetate] | 12.6 ± 2.8 | 17.3 ± 1.9 | 21.2 ± 1.3 | –
CC(C)=CCC[C@]1(C)[C@@H](CC=C(C)C)C[C@@]2(CC=C(C)C)C(=O)[C@]1(C(=O)C(C)C)C(=O)C(CC=C(C)C)=C2O [hyperforin] | – | – | – | falls almost to zero
